The results in this text go back to US9593108B2, “Compounds and methods for antiviral treatment” (PTC Therapeutics, Inc., priority 2009, dated 2017).

Each structure is given as a SMILES string. A value given as a limit tells only on which side of the number the result lay.

Data set [1] deals with HCV replicon RNA (GenBank Accession No. AJ242654). As to the kind of experiment: HCV Replicon Assay (replicon RNA reduction and/or Fluc reporter signal). In kind it is cell-based, Hepatitis C virus. The following applies: Hepatitis C virus, 72 h, replicon-containing cells cultured with test compound for up to 3 days. A digest of the protocol:
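Bicistronic replicon-containing cells cultured with compound for up to 3 days, with interferon as positive control. Inhibition quantified by replicon RNA reduction and/or Fluc reporter signal; IC50 values generally derived from replicon RNA reduction.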
A general note: In antiviral work, replicon cells carry a viral genome segment that copies itself.

What is called IC50 is the concentration that inhibits the measured activity by half. The melting point is the temperature of the solid-liquid transition.

For the compound `Cc1ccc2c(C#N)c(-c3ccc(S(=O)(=O)NC(C)C)cc3)n(CC3CC3)c2n1` [Cpd 5, 4-[3-cyano-1-(cyclopropylmethyl)-6-methyl-1H-pyrrolo[2,3-b]pyridin-2-yl]-N-(propan-2-yl)benzenesulfonamide], the melting point was in the range of 175 to 177 °C. The IC50 in data set [1] was under 500 nM.
As to `CC(C)NS(=O)(=O)c1ccc(-c2c(C#N)c3cc(Cl)cnc3n2C2CCC2)cc1` [Cpd 6, 4-(5-chloro-3-cyano-1-cyclobutyl-1H-pyrrolo[2,3-b]pyridin-2-yl)-N-(propan-2-yl)benzenesulfonamide], the melting point is 172 to 175 °C. For the same compound, in data set [1], the IC50 was under 500 nM.
Compound `CC(C)NS(=O)(=O)c1ccc(-c2c(C#N)c3cccnc3n2C2CCC2)cc1` [Cpd 7, 4-(3-cyano-1-cyclobutyl-1H-pyrrolo[2,3-b]pyridin-2-yl)-N-(propan-2-yl)benzenesulfonamide] yielded a melting point of 198 to 200 °C. Moreover, the IC50 in data set [1] was 500 to 2000 nM.
For `N#Cc1c(-c2ccc(S(=O)(=O)NC(CF)CF)cc2)n(C2CCC2)c2ncc(Cl)cc12` [Cpd 8, 4-(5-chloro-3-cyano-1-cyclobutyl-1H-pyrrolo[2,3-b]pyridin-2-yl)-N-(1,3-difluoropropan-2-yl)benzenesulfonamide] the same measures were 234 to 238 °C and 500 to 2000 nM.
As for `COc1cnc2c(c1)c(C#N)c(-c1ccc(S(=O)(=O)NC(CF)CF)cn1)n2C1CCC1` [Cpd 9, 6-(3-cyano-1-cyclobutyl-5-methoxy-1H-pyrrolo[2,3-b]pyridin-2-yl)-N-(1,3-difluoropropan-2-yl)pyridine-3-sulfonamide], the melting point was 161 to 163 °C. In addition, the IC50 in data set [1] was under 500 nM.
The corresponding values for `N#Cc1c(-c2ccc(S(=O)(=O)NC(CF)CF)cn2)n(C2CCCC2)c2ncc(Cl)cc12` [Cpd 10, 6-(5-chloro-3-cyano-1-cyclopentyl-1H-pyrrolo[2,3-b]pyridin-2-yl)-N-(1,3-difluoropropan-2-yl)pyridine-3-sulfonamide] are 208 to 209 °C and under 500 nM.
On to `COc1cnc2c(c1)c(C#N)c(-c1ncc(S(=O)(=O)NC(CF)CF)cn1)n2C1CCC1` [Cpd 11, 2-(3-cyano-1-cyclobutyl-5-methoxy-1H-pyrrolo[2,3-b]pyridin-2-yl)-N-(1,3-difluoropropan-2-yl)pyrimidine-5-sulfonamide], for which the melting point fell in the range of 194 to 196 °C. In data set [1], this compound registered an IC50 of 500 to 2000 nM.
The corresponding values for `N#Cc1c(-c2ccc(S(=O)(=O)NC(CF)CF)cn2)n(C2CCC2)c2ncc(F)cc12` [Cpd 12, 6-(3-cyano-1-cyclobutyl-5-fluoro-1H-pyrrolo[2,3-b]pyridin-2-yl)-N-(1,3-difluoropropan-2-yl)pyridine-3-sulfonamide] are 155 to 157 °C and 500 to 2000 nM.
The corresponding values for `N#Cc1c(-c2ncc(S(=O)(=O)NC(CF)CF)cn2)n(C2CCC2)c2ncc(Cl)cc12` [Cpd 13, 2-(5-chloro-3-cyano-1-cyclobutyl-1H-pyrrolo[2,3-b]pyridin-2-yl)-N-(1,3-difluoropropan-2-yl)pyrimidine-5-sulfonamide] are 199 to 200 °C and under 500 nM.
For `N#Cc1c(-c2ccc(S(=O)(=O)NC(CF)CF)cn2)n(C2CCC2)c2ncc(Cl)cc12` [Cpd 14, 6-(5-chloro-3-cyano-1-cyclobutyl-1H-pyrrolo[2,3-b]pyridin-2-yl)-N-(1,3-difluoropropan-2-yl)pyridine-3-sulfonamide] the same measures were 176 to 178 °C and under 500 nM.
In turn, `COc1ccc2c(n1)c(C#N)c(-c1ccc(S(=O)(=O)NC(CF)CF)cn1)n2C1CCC1` [Cpd 15, 6-(3-cyano-1-cyclobutyl-5-methoxy-1H-pyrrolo[3,2-b]pyridin-2-yl)-N-(1,3-difluoropropan-2-yl)pyridine-3-sulfonamide] showed a melting point of 199 to 201 °C. Besides, in data set [1], the IC50 lay within 500 to 2000 nM.
The corresponding values for `N#Cc1c(-c2ncc(S(=O)(=O)NC(CF)CF)cn2)n(C2CCC2)c2ncc(F)cc12` [Cpd 16, 2-(3-cyano-1-cyclobutyl-5-fluoro-1H-pyrrolo[2,3-b]pyridin-2-yl)-N-(1,3-difluoropropan-2-yl)pyrimidine-5-sulfonamide] are 204 to 206 °C and 500 to 2000 nM.
The corresponding values for `N#Cc1c(-c2ncc(S(=O)(=O)NC(CF)CF)cn2)n(C2CCCC2)c2ncc(Cl)cc12` [Cpd 17, 2-(5-chloro-3-cyano-1-cyclopentyl-1H-pyrrolo[2,3-b]pyridin-2-yl)-N-(1,3-difluoropropan-2-yl)pyrimidine-5-sulfonamide] are 247 to 248 °C and 500 to 2000 nM.
For the compound `C[C@H](NS(=O)(=O)c1ccc(-c2c(C#N)c3cccnc3n2C2CCC2)nc1)C(F)(F)F` [Cpd 18, 6-(3-cyano-1-cyclobutyl-1H-pyrrolo[2,3-b]pyridin-2-yl)-N-[(2S)-1,1,1-trifluoropropan-2-yl]pyridine-3-sulfonamide], the melting point lay in the range of 183 to 185 °C. The IC50 in data set [1] is 500 to 2000 nM.
`COc1ccc2c(n1)c(C#N)c(-c1ncc(S(=O)(=O)NC(CF)CF)cn1)n2C1CCC1` [Cpd 19, 2-(3-cyano-1-cyclobutyl-5-methoxy-1H-pyrrolo[3,2-b]pyridin-2-yl)-N-(1,3-difluoropropan-2-yl)pyrimidine-5-sulfonamide] displayed a melting point of 241 to 243 °C. The IC50 in data set [1] fell in the range of 2000 to 5000 nM.
The corresponding values for `C[C@H](NS(=O)(=O)c1cnc(-c2c(C#N)c3cc(F)cnc3n2C2CCC2)nc1)C(F)(F)F` [Cpd 21, 2-(3-cyano-1-cyclobutyl-5-fluoro-1H-pyrrolo[2,3-b]pyridin-2-yl)-N-[(2S)-1,1,1-trifluoropropan-2-yl]pyrimidine-5-sulfonamide] are 186 to 187 °C and under 500 nM.
For `COc1cnc2c(c1)c(C#N)c(-c1ncc(S(=O)(=O)N[C@@H](C)C(F)(F)F)cn1)n2C1CCC1` [Cpd 23, 2-(3-cyano-1-cyclobutyl-5-methoxy-1H-pyrrolo[2,3-b]pyridin-2-yl)-N-[(2S)-1,1,1-trifluoropropan-2-yl]pyrimidine-5-sulfonamide] the same measures were 193 to 196 °C and 500 to 2000 nM.
The corresponding values for `C[C@H](NS(=O)(=O)c1ccc(-c2c(C#N)c3cc(Cl)cnc3n2C2CCCC2)nc1)C(F)(F)F` [Cpd 24, 6-(5-chloro-3-cyano-1-cyclopentyl-1H-pyrrolo[2,3-b]pyridin-2-yl)-N-[(2S)-1,1,1-trifluoropropan-2-yl]pyridine-3-sulfonamide] are 197 to 199 °C and under 500 nM.
`C[C@H](NS(=O)(=O)c1cnc(-c2c(C#N)c3cc(Cl)cnc3n2C2CCCC2)nc1)C(F)(F)F` [Cpd 25, 2-(5-chloro-3-cyano-1-cyclopentyl-1H-pyrrolo[2,3-b]pyridin-2-yl)-N-[(2S)-1,1,1-trifluoropropan-2-yl]pyrimidine-5-sulfonamide]: the melting point was in the range of 206 to 208 °C. In data set [1], this compound displayed an IC50 of 500 to 2000 nM.
The corresponding values for `Cc1cc2c(cn1)c(C#N)c(-c1ccc(S(=O)(=O)NC(CF)CF)cn1)n2C1CCC1` [Cpd 26, 6-(3-cyano-1-cyclobutyl-6-methyl-1H-pyrrolo[3,2-c]pyridin-2-yl)-N-(1,3-difluoropropan-2-yl)pyridine-3-sulfonamide] are 216 to 218 °C and 500 to 2000 nM.
Turning to `Cc1cc2c(cn1)c(C#N)c(-c1ncc(S(=O)(=O)NC(CF)CF)cn1)n2C1CCC1` [Cpd 27, 2-(3-cyano-1-cyclobutyl-6-methyl-1H-pyrrolo[3,2-c]pyridin-2-yl)-N-(1,3-difluoropropan-2-yl)pyrimidine-5-sulfonamide], the melting point fell in the range of 234 to 236 °C. The IC50 in data set [1] was under 500 nM.
For `Cc1cc2c(cn1)c(C#N)c(-c1ccc(S(=O)(=O)N[C@@H](C)C(F)(F)F)cn1)n2C1CCC1` [Cpd 28, 6-(3-cyano-1-cyclobutyl-6-methyl-1H-pyrrolo[3,2-c]pyridin-2-yl)-N-[(2S)-1,1,1-trifluoropropan-2-yl]pyridine-3-sulfonamide], the melting point was 189 to 191 °C. In addition, the IC50 in data set [1] was 2000 to 5000 nM.
The corresponding values for `Cc1cc2c(cn1)c(C#N)c(-c1ccc(S(=O)(=O)N[C@H](C)C(F)(F)F)cn1)n2C1CCC1` [Cpd 29, 6-(3-cyano-1-cyclobutyl-6-methyl-1H-pyrrolo[3,2-c]pyridin-2-yl)-N-[(2R)-1,1,1-trifluoropropan-2-yl]pyridine-3-sulfonamide] are 176 to 178 °C and under 500 nM.
As to `Cc1cc2c(cn1)c(C#N)c(-c1ccc(S(=O)(=O)N[C@@H](C)C(F)(F)F)cc1)n2C1CCC1` [Cpd 30, 4-(3-cyano-1-cyclobutyl-6-methyl-1H-pyrrolo[3,2-c]pyridin-2-yl)-N-[(2S)-1,1,1-trifluoropropan-2-yl]benzenesulfonamide], the melting point fell in the range of 248 to 249 °C. The half-inhibitory concentration (IC50) in data set [1] was under 500 nM.
The corresponding values for `Cc1cc2c(cn1)c(C#N)c(-c1ccc(S(=O)(=O)N[C@H](C)C(F)(F)F)cc1)n2C1CCC1` [Cpd 31, 4-(3-cyano-1-cyclobutyl-6-methyl-1H-pyrrolo[3,2-c]pyridin-2-yl)-N-[(2R)-1,1,1-trifluoropropan-2-yl]benzenesulfonamide] are 247 to 249 °C and under 500 nM.
The corresponding values for `Cc1cc2c(cn1)c(C#N)c(-c1ncc(S(=O)(=O)NC(C)C)cn1)n2C1CCC1` [Cpd 32, 2-(3-cyano-1-cyclobutyl-6-methyl-1H-pyrrolo[3,2-c]pyridin-2-yl)-N-(propan-2-yl)pyrimidine-5-sulfonamide] are 242 to 243 °C and under 500 nM.
Take `Cc1cc2c(cn1)c(C#N)c(-c1ccc(S(=O)(=O)NC(CF)CF)cc1)n2C1CCC1` [Cpd 33, 4-(3-cyano-1-cyclobutyl-6-methyl-1H-pyrrolo[3,2-c]pyridin-2-yl)-N-(1,3-difluoropropan-2-yl)benzenesulfonamide]: the melting point lay within 234 to 236 °C. Also, the concentration for half-maximal inhibition (IC50) in data set [1] is under 500 nM.
